Measurements taken from ChEMBL document CHEMBL1201862, “PubChem BioAssay data set” (2004).
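These data come from cells grown in 96-well plates and exposed to compound for 48 hours at five concentrations. Here, GI50 denotes the concentration required for 50% inhibition of growth.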 Activity calls are given as the source filed them. Rule as the data show it: active = GI50 up to about 1.1 µM and inactive = higher.

Columns and labels:
Assay in all cases: DTP human tumour cell line panel, 48 h
SF-539 = system: SF-539
HL-60 = system: HL-60
HCT-15 = system: HCT-15
HCT-116 = system: HCT-116
NCI-H522 = system: NCI-H522
HOP-92 = system: HOP-92
LOX IMVI = system: LOX IMVI
UACC-257 = system: UACC-257
SK-MEL-2 = system: SK-MEL-2
EKVX = system: EKVX
NCI-H460 = system: NCI-H460
BT-549 = system: BT-549
SNB-75 = system: SNB-75
MDA-MB-435 = system: MDA-MB-435
DU-145 = system: DU-145
KM12 = system: KM12
U-251 = system: U-251
HT-29 = system: HT-29
Malme-3M = system: Malme-3M
OVCAR-3 = system: OVCAR-3
SF-268 = system: SF-268
OVCAR-5 = system: OVCAR-5
SNB-19 = system: SNB-19
IGROV-1 = system: IGROV-1
SR = system: SR
A549 = system: A549
Hs-578T = system: Hs-578T
UACC-62 = system: UACC-62
PC-3 = system: PC-3
HCC 2998 = system: HCC 2998
786-0 = system: 786-0
RXF 393 = system: RXF 393
SN12C = system: SN12C
NCI/ADR-RES = system: NCI/ADR-RES
MCF7 = system: MCF7
SW-620 = system: SW-620
NCI-H226 = system: NCI-H226
ACHN = system: ACHN
TK-10 = system: TK-10
OVCAR-8 = system: OVCAR-8
CCRF-CEM = system: CCRF-CEM
SF-295 = system: SF-295
SK-OV-3 = system: SK-OV-3
UO-31 = system: UO-31
MOLT-4 = system: MOLT-4
M14 = system: M14
OVCAR-4 = system: OVCAR-4
K562 = system: K562
NCI-H23 = system: NCI-H23
HOP-62 = system: HOP-62
T47D = system: T47D
CAKI-1 = system: CAKI-1
MDA-MB-231 = system: MDA-MB-231
A498 = system: A498
SK-MEL-5 = system: SK-MEL-5
COLO 205 = system: COLO 205
SK-MEL-28 = system: SK-MEL-28
MDA-N = system: MDA-N
RPMI-8226 = system: RPMI-8226

Measured: GI50

Cc1cn(C2CC(ON3C(=O)c4ccccc4C3=O)C(CO)O2)c(=O)[nH]c1=O (stereo unspecified)
active: HOP-92 0.855 µM
> 10 µM: HCT-15
inactive: SF-539 > 10 µM | HL-60 > 10 µM | HCT-116 > 10 µM | NCI-H522 > 10 µM | LOX IMVI > 10 µM | UACC-257 > 10 µM | SK-MEL-2 > 10 µM | EKVX > 10 µM | NCI-H460 > 10 µM | BT-549 > 10 µM | SNB-75 > 10 µM | MDA-MB-435 > 10 µM | DU-145 > 10 µM | KM12 > 10 µM | U-251 > 10 µM | HT-29 > 10 µM | Malme-3M > 10 µM | OVCAR-3 > 10 µM | SF-268 > 10 µM | OVCAR-5 > 10 µM | SNB-19 > 10 µM | IGROV-1 > 10 µM | SR > 10 µM | A549 > 10 µM | Hs-578T > 10 µM | UACC-62 > 10 µM | PC-3 > 10 µM | HCC 2998 > 10 µM | 786-0 > 10 µM | RXF 393 > 10 µM | SN12C > 10 µM | NCI/ADR-RES > 10 µM | MCF7 > 10 µM | SW-620 > 10 µM | NCI-H226 > 10 µM | ACHN > 10 µM | TK-10 > 10 µM | OVCAR-8 > 10 µM | CCRF-CEM > 10 µM | SF-295 > 10 µM | SK-OV-3 > 10 µM | UO-31 > 10 µM | MOLT-4 > 10 µM | M14 > 10 µM | OVCAR-4 > 10 µM | K562 > 10 µM | NCI-H23 > 10 µM

CCN(CC)C(=S)SS(=O)(=O)c1ccc(C)cc1
inactive: SF-539 16.9 µM | HOP-62 23.2 µM | LOX IMVI 17.4 µM | UACC-257 19.2 µM | SK-MEL-2 50.4 µM | EKVX > 100 µM | NCI-H460 27.2 µM | T47D 59.7 µM | BT-549 28.7 µM | MDA-MB-435 31.5 µM | DU-145 42.6 µM | KM12 14.2 µM | CAKI-1 17.7 µM | U-251 23.3 µM | HT-29 13.2 µM | MDA-MB-231 35.7 µM | Malme-3M 20.4 µM | OVCAR-3 39.6 µM | SF-268 55.2 µM | OVCAR-5 > 100 µM | SNB-19 61.1 µM | Hs-578T 75.5 µM | UACC-62 16.2 µM | HCC 2998 36.9 µM | 786-0 20.3 µM | A498 > 100 µM | RXF 393 16.8 µM | SN12C 17.5 µM | NCI/ADR-RES 35.6 µM | COLO 205 22.3 µM | SW-620 19.9 µM | NCI-H226 52 µM | ACHN 34.7 µM | SK-MEL-28 18.5 µM | MDA-N 27.9 µM | TK-10 > 100 µM | OVCAR-8 19.5 µM | SF-295 52.7 µM | SK-OV-3 > 100 µM | UO-31 20.7 µM | M14 13.9 µM | OVCAR-4 43.2 µM | K562 28.5 µM | NCI-H23 42.4 µM
active: NCI-H522 < 0.01 µM | SK-MEL-5 0.644 µM | CCRF-CEM < 0.01 µM
36.7 µM: HCT-15

[O-][Cl+3]([O-])([O-])[O-].[O-][Cl+3]([O-])([O-])[O-].c1ccn2c(N3CCCC3)[n+]3c4ccccc4n4c(N5CCCC5)[n+]5ccccc5c4c3c2c1
inactive: SF-539 57.9 µM | HL-60 > 100 µM | HCT-116 > 100 µM | NCI-H522 64.1 µM | HOP-92 73.1 µM | LOX IMVI > 100 µM | UACC-257 34.6 µM | SK-MEL-2 39.2 µM | EKVX > 100 µM | NCI-H460 94.4 µM | T47D 43.5 µM | BT-549 30.9 µM | SNB-75 18.7 µM | MDA-MB-435 > 100 µM | DU-145 > 100 µM | KM12 40.3 µM | CAKI-1 > 100 µM | U-251 28.2 µM | MDA-MB-231 > 100 µM | Malme-3M 36.2 µM | OVCAR-3 87.5 µM | SF-268 15.3 µM | OVCAR-5 > 100 µM | SNB-19 29.4 µM | IGROV-1 42.7 µM | SR 38.1 µM | A549 > 100 µM | Hs-578T 33.4 µM | UACC-62 41.8 µM | PC-3 46.5 µM | HCC 2998 78.3 µM | 786-0 27.6 µM | A498 > 100 µM | RXF 393 38.3 µM | SN12C 8 µM | SK-MEL-5 22.2 µM | NCI/ADR-RES > 100 µM | MCF7 67.1 µM | COLO 205 20 µM | SW-620 > 100 µM | ACHN > 100 µM | SK-MEL-28 > 100 µM | TK-10 > 100 µM | OVCAR-8 25.4 µM | RPMI-8226 98.6 µM | CCRF-CEM > 100 µM | SF-295 46.3 µM | MOLT-4 > 100 µM | M14 > 100 µM | OVCAR-4 > 100 µM | K562 35.8 µM | NCI-H23 54.5 µM
> 100 µM: HCT-15
active: NCI-H226 0.745 µM
